For orientation: inhibition means the drop in the measured response relative to a control, in per cent. In general, GI50 refers to the concentration at which growth is held to half of that of the control. A lower GI50 goes with more potent growth inhibition. One may read the melting point as the temperature of the solid-liquid transition.

Counter-ions that a name gives are not always drawn.

Data set [1] can be described thus: Solubility in water of hydrochloride and acetate salts. Particulars: content 5 mg/1 ml distilled water, room temperature. The format is physicochemical. The method, then:
The solubilities in water of the hydrochlorides prepared in Examples 26, 27, 32, 33, 48, 49, 53 and 54, and the solubilities in water of the acetates prepared in Examples 70 to 77, were compared.
The experimental conditions and methods are described, as follows.
1) 1 ml of distilled water is added to a container including 5 mg of salt at room temperature.
2) The resulting mixture is stirred for 10 minutes, and then kept at room temperature for 1 hour.
3) Undissolved residual salt is recovered and weighed.
4) The ratio of the amount of the recovered salt and the amount of the dissolved salt is calculated.
5) Operations 1) to 4) are repeatedly performed with increasing amount (i.e., 10, 15, 20, 25 and 30 mg) of salt.
The experimental procedures were performed for each of the hydrochlorides of Examples 26, 27, 32, 33, 48, 49, 53 and 54 and the acetates of Examples 70 to 77. The comparative solubilities obtained using the hydrochlorides of Examples 26, 27, 32, 33, 48, 49, 53 and 54 and the acetates of Examples 70 to 77 are listed in the following Table 1.

Another data set concerns HCT116 cells. Description: Measurement of effect of inhibiting cancer cell proliferation (MTT). Format: cell-based, human. The conditions noted are these: Homo sapiens; for inhibition at 100 µM: HCT-116, 100 μM, 48 hours, read-out: Cell Growth Inhibition (%) at 100 μM. Summed up:
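HCT116 cells (~5,000/well, DMEM with 10% FBS) treated 48 h with compound at 0.39–100 μM, metformin hydrochloride control at 0.1–25 mM. Viability by MTT (3 h, formazan in DMSO, A560) relative to untreated wells; GIC50 from the viability curve, also viability at 100 μM.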

The subject of a further data set is AMPKα. The data set is described as follows: Measurement of AMPK activation effect (AMPKα Thr172 phosphorylation immunoassay) in MCF7 cells. Particulars: 24 hours; for AMPK activation effect AC150: concentration at which AMPK activation reached 150%. The format is cell-based, human. The essentials: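 MCF7 cells in DMEM/10% FBS were treated 24 h with derivatives at 5, 10 and 50 μM (metformin hydrochloride control, 0.05–10 mM). AMPKα Thr172 phosphorylation was measured by immunoassay on 20 μg lysate. AC150 (concentration giving 150% activation) came from concentration–response curves, with activation also reported at fixed concentrations.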

A further data set has as its system Snail. Description: EMT inhibitory effect by inhibition of Snail expression (immunoblotting) in MCF7 cells. Format: cell-based, human. Particulars: MCF7, 48 hours, untreated control = 100%. The method, then: Cells undergoing EMT owing to various cytokines and growth factors can acquire motility and thus move a distance to form tumors in new tissues. Therefore, the metastasis of cancer cells can be inhibited by controlling expression of EMT-related transcription factors to hinder EMT. Based on these facts, the activities of biguanide derivatives that inhibit Snail expression, which is a transcription factor inducing EMT in the MCF7 cell line derived from human breast cancer, were measured and simple experimental methods are described, as follows.
MCF7 cells derived from human breast cancer (commercially available from Korean Cell Line Bank) were cultured in a DMEM medium supplemented with 10% (v/v) fetal bovine serum (commercially available from Gibco Life Technologies (US)), put into a 6-well plate so that the number of cultured cells could amount to approximately 5×10^5 cells per well, and then incubated in an incubator supplied with 5% CO2 (culture temperature: 37° C., pH: 7.0 to 7.4). The culture media were treated with phenformin hydrochloride and the compounds synthesized in the examples at contents of 1 μM and 10 μM, respectively, and then incubated for 48 hours. Metformin hydrochloride was used as the control, and the cells were treated with 1 mM and 10 mM metformin hydrochloride. After 48 hours, the cells were lysed in a cell lysis buffer containing 10 mM Tris HCl (pH7.4), 100 mM NaCl, 1 mM EDTA, 1 mM EGTA, 1 mM NaF, 20 mM Na4P2O7, 2 mM Na3VO4, 1% TritonX-100, 10% glycerol, 0.5% deoxycholate and 1 mM PMSF. Then, 25 μg of the cell lysate was electrophoresized in an SDS-PAGE gel, and then transferred to a […] membrane (commercially available from Amersham Life Science). The membrane reacted with rat monoclonal anti-human Snail (commercially available from Cell signaling Technology) or mouse monoclonal anti-β-actin (commercially available from Santa cruz Biotechnology), and unbound antibodies were removed. In this case, anti-β-actin was used as the antibody to ensure that the amount of proteins loaded into the SDS-PAGE gel is identical. The membrane was reacted again with a secondary antibody, anti-rat IgG (commercially available from Cell signaling Technology) or anti-mouse IgG (commercially available from Santa Cruz Biotechnology). Finally, the antibody bound to the membrane was detected using an ECL Plus system (commercially available from Amersham Life Science). Also, the expression level of Snail with respect to β-actin was analyzed using a Scion image analysis program. Here, when it was assumed that the expression level of the untreated control was 100%, the expression level of the Snail by treatment with the compounds synthesized in the examples was indicated as a percentage (%).

Data set [2] relates to MCF7 cells (breast cancer stem cell, mammosphere). The data set is described as follows: Measurement of effect of inhibiting mammosphere formation. Format: cell-based, human. The conditions noted are these: MCF7, 8 days; for Number of Mammospheres: size 50 um or more. An excerpt: The cancer stem cells refer to cancer cells that have self-regeneration or differentiation capacity which is characteristically innate to stem cells. Here, the cancer stem cells show resistance to conventional anticancer therapy and poor prognosis. Therefore, the biguanide derivative has an effect of inhibiting cancer recurrence by inhibiting formation and proliferation of cancer stem cells, especially, breast cancer stem cells (mammosphere). Accordingly, the effect of the biguanide derivative of inhibiting breast cancer stem cell (mammosphere) formation was measured in an MCF7 cell line derived from human breast cancer forming mammospheres, and simple experimental methods are described, as follows.
MCF7 cells derived from human breast cancer were cultured (culture temperature: 37° C., pH: 7.0 to 7.4) in a DMEM medium supplemented with 10% (v/v) fetal bovine serum (commercially available from Gibco Life Technologies (US)) so that the MCF7 cells could grow to approximately 80% confluency and used in an experiment to determine an ability to form mammospheres. After MCF7 cells were made to single cells and the number of cell was counted, MCF7 cells were put in to a 24-well plate at 2,000 cells/well. […] Also, a culture media for forming mammospheres was prepared so that a serum-free DMEM/F12 medium could include 2% B27 (commercially available from Invitrogen), 20 ng/ml EGF (commercially available from Sigma), 5 μg/ml insulin (commercially available from Sigma) and 1 μg/ml hydrocortisone (commercially available from Sigma). Cells were cultured in a CO2 incubator for 24 hours and treated with each of the compounds synthesized in the examples at contents of 0.1 μM, 1 μM, 5 μM and 10 μM. Then, the cultured cells were added to the culture media for forming mammospheres so that a final volume of the culture broth could be adjusted to 1 ml. The cells were treated with the same concentrations of phenformin hydrochloride as the control and cultured in a CO2 incubator for 8 days. Thereafter, the mammosphere-forming efficiency and size of the cells were observed. After 8 days, the number of mammospheres having a size of 50 um or more was determined to calculate the mammosphere-forming efficiency (MFE (%)). The MFE (%) is calculated according to the following Equation 1.
When the cells were cultured for 8 days, MFE (%) of the cells on a plate treated with the phenformin hydrochloride and the compounds synthesized in the examples was compared with MFE (%) of the cells on a plate that was not treated with the compounds. The results are listed as the mammosphere formation inhibition rate (%) in the following Table 4, and the mammosphere-forming efficiencies of the respective compounds are shown in FIG. 1.

`Cl.N=C(NC(=N)N1CCCCC1)Nc1ccc(OC(F)(F)F)c(F)c1` [Example 54, N1-piperidine-N5-(3-fluoro-4-trifluoromethoxy)phenyl biguanide hydrochloride]: the melting point was 262 to 263 °C. In data set [1], the “Solubility in water (%), hydrochloride salt” value is 20%. The inhibition at 100 µM with HCT116 cells worked out at 96.4%. Besides, the GI50 with HCT116 cells (HCT-116, 48 h) was determined as 4.5 µM. In addition, the “AMPK activation effect at 10 μM (%)” value with AMPKα (10 μM, relative to untreated cells) was 400%. In addition, in the data set on AMPKα, the “AMPK activation effect AC150” value turned out to be 0.5 µM.

In the case of `CN(C)C(=N)N=C(N)N` [Metformin hydrochloride, reference compound], the “Snail Expression Rate (%)” value is 70.3% with Snail (1 mM) and 13.6% in the data set with Snail (10 mM). Besides, in the data set with HCT116 cells, the inhibition at 100 µM came out at 1.8%. Further, the “AMPK activation effect at 50 μM (%)” value with AMPKα (50 μM, relative to untreated cells) stood at 130.0%. Moreover, in the data set on AMPKα, the “AMPK activation effect AC150” value was found to be 188.3 µM.

In the case of `[H]/N=C(/N)N/C(=N/[H])NCCc1ccccc1` [Phenformin hydrochloride, reference compound], the “Snail Expression Rate (%)” value was 117.6% in the data set with Snail (1 μM) and 53.8% in the data set on Snail (10 μM). The “MFE (%) (mammosphere-forming efficiency)” value in data set [2] (0.1 μM) is recorded as 4.2%; in data set [2] (1 μM), 3.9%; in data set [2] (5 μM), 5.2%; in data set [2] (10 μM), 5.8%. The “Number of Mammospheres” value is 84 ± 2.8 in data set [2] (0.1 μM), 79 ± 0.7 in data set [2] (1 μM), 103 ± 1.4 in data set [2] (5 μM) and 116 ± 19.1 in data set [2] (10 μM). Moreover, the inhibition at 0.1 µM in data set [2] (Homo sapiens, 192 h, 0.1 μM, vs untreated, read-out: Mammosphere formation inhibition rate (%)) came to 18.4%. For the same compound, in data set [2] (Homo sapiens, 192 h, 1 μM, vs untreated, read-out: Mammosphere formation inhibition rate (%)), the inhibition at 1 µM worked out at 23.8%. Moreover, in data set [2] (Homo sapiens, 192 h, 5 μM, vs untreated, read-out: Mammosphere formation inhibition rate (%)), the inhibition at 5 µM turned out to be 0%. Also, the inhibition at 10 µM in data set [2] (Homo sapiens, 192 h, 10 μM, vs untreated, read-out: Mammosphere formation inhibition rate (%)) is -12.1%.

For the origin of these results see patent publication US9540325B2, “N1-cyclic amine-N5-substituted phenyl biguanide derivatives, methods of preparing the same and pharmaceutical composition comprising the same” (Immunomet Therapeutics, Inc., priority 2011, dated 2017).
